Measurements reported in patent US7776878B2, “Heterocyclic benzylamino derivatives, their manufacture and use as pharmaceutical agents” (Hoffmann-La Roche Inc., priority 2005, dated 2010).

Assays:
[1] = target: T1, Upstate Src (p60^c-src, partially purified) (Homo sapiens, UniProt P12931); assay: SRC-Inhibitor-Assay (time-resolved fluorescence), Src; type: biochemical; conditions: ATP 5 μM, peptide 10 μM, enzyme 2.5 U/mL, 15 min pre-incubation at 15° C.
T1 construct: purchased UBI, Upstate Biotech, Inc
Text: (§1) The activity of the compounds according to this invention as inhibitors for the src-family tyrosine kinases was shown by using the following assay.
(§2) SRC-Inhibitor-Assay Parameters:
(§3) Eu-labelled phosphotyrosine antibody:—for Lck Cisbio Mab PT66-K, • for Src EG&G Wallac PT66 Eu-W1024 (all commercially available).
(§4) Peptides: Ro: NH2-A-E-E-E-I-Y-G-E-F-E-A-K-K-K-K-CONH2, and • Ja133-Ro: Ja133-G-Aminocaprylic acid-A-E-E-E-I-Y-G-E-F-E-A-K-K-K-K-CONH2, wherein Ja133 is LightCycler-Red 640-N-hydroxy succinimide ester; • whereby both peptides were synthesized by an optimized solid phase peptide synthesis protocol (Merrifield, Fed. Proc. Fed. Amer. Soc. Exp. Biol. 21 (1962) 412) on a Zinsser SMP350 peptide synthesizer. Shortly, the peptide was assembled on 160 mg (22.8 μmol scale) of a Rink-Linker modified polystyrene solid phase by repeatedly conjugating an twenty fold excess of amino acids each protected by temporary piperidine labile Fmoc- and permanent acid labile tert-Bu-, BOC- and O-tert-Bu-groups depending on the side chain function. The substrate sequence AEEEIYGEFEAKKKK was N-terminal additionally mounted with the spacer amino acids Aminocaprylic acid and Glycin. After cleavage of the N-terminal temporary protecting group the still attached and protected peptide was labeled with a 1.5 fold amount of LightCycler-Red 640-N-hydroxy succinimide ester (purchased from Roche Diagnostics GmbH) and triethylamine. After 3 hrs. the resin was washed with Dimethylformamide and Isopropanol until the eluates of the blue resin got colourless. […] The substrate was finally isolated by a preparative reverse phase HPLC purification. The purification yielded 12.2 mg RP-HPLC single peak pure blue material (lyophilisate). The identity was proven by MALDI mass spectroscopy [2720.0].
(§5) Enzymes: Upstate Lck (p56^lck, active), Upstate Src (p60^c-src, partially purified) were purchased from UBI, Upstate Biotech, Inc.
(§6) Time-resolved Fluorescence Assay: Reader: Perkin Elmer, Wallac Viktor 1420-040 multilabel counter; Liquid handling system: Beckman Coulter, Biomek 2000.
(§7) ATP, Tween™ 20, 4-(2-hydroxyethyl)-l-piperazineethanesulfonic acid (HEPES) were purchased from Roche Molecular Biochemicals, MgCl2 and MnCl2 were purchased from Merck Eurolab, Tris(2-carboxyethyl)phosphine hydrochloride (TCEP) was purchased from Pierce, 384 Well low volume fluorescence plates was purchased from Falcon.
(§8) At first the enzyme is pre-incubated for 15 min. at 15° C. in aqueous solution with corresponding amounts of inhibitors according to this invention. Then the phosphorylation reaction is started by adding a reaction mixture, containing ATP, Peptide and PT66, and subsequent shaking. The proceeding of this reaction is immediately monitored using time resolved fluorescence spectroscopy in a suitable well plate reader.
(§9) The IC50-values can be obtained from the reaction rates by using a non-linear curve fit (XLfit software (ID Business Solution Ltd., Guilford, Surrey, UK))

[2] = target: T2, Upstate Lck (p56^lck, active) (Homo sapiens, UniProt P06239); assay: SRC-Inhibitor-Assay (time-resolved fluorescence), Lck; type: biochemical; conditions: ATP 5 μM, peptide 10 μM, enzyme 2.5 U/mL, 15 min pre-incubation at 15° C.
T2 construct: purchased UBI, Upstate Biotech, Inc
Text: as §1, §2, §3, §4, §5, §6, §7, §8, §9

T1 sequence (P12931 whole entry): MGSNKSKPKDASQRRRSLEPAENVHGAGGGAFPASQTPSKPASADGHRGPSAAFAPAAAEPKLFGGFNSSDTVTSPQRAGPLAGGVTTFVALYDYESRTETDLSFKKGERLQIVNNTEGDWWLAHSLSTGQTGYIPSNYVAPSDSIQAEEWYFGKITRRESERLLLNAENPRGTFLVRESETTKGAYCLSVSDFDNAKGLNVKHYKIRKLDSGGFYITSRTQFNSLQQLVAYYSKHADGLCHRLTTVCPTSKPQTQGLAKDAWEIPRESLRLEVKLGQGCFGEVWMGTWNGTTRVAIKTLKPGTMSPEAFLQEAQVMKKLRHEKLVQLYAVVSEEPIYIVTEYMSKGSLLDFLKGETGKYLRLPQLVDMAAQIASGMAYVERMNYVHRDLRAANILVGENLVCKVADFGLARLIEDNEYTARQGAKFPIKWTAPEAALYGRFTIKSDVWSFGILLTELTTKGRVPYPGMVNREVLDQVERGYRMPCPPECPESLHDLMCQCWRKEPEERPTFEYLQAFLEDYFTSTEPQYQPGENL
T2 sequence (P06239 whole entry): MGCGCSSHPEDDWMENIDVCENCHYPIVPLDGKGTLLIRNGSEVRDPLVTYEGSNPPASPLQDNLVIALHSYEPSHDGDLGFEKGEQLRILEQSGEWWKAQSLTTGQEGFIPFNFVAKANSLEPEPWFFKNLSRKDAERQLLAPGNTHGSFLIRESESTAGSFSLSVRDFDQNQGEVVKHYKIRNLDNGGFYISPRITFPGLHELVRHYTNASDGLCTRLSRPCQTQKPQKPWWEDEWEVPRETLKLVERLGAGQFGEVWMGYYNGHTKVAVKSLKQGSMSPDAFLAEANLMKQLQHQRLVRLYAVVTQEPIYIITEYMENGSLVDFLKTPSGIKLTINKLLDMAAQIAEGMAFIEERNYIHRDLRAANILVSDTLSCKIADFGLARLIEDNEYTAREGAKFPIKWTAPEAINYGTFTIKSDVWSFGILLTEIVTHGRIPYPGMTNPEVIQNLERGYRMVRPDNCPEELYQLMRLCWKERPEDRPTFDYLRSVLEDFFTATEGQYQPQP

Row | SMILES | IC50 [1] [µM] | IC50 [2] [µM]
1 | CC(Nc1cnc2[nH]c(-c3ccccc3)nc2c1)c1ccccc1 (stereo not drawn) [Example 1-1, (1-Phenyl-ethyl)-(2-phenyl-3H-imidazo[4,5-b]pyridin-6-yl)-amine] | 0.5 to 1.5 | 1 to 5
2 | COCCOc1cccc(-c2cc3cc(NCc4ccccc4)cnc3[nH]2)c1 [Example 2-1, Benzyl-{2-[3-(2-methoxy-ethoxy)-phenyl]-1H-pyrrolo[2,3-b]pyridin-5-yl}-amine] | 0.5 to 1.5 | 0.1 to 1
3 | COCCOc1cccc(-c2cc3cc(NCc4ccccc4C)cnc3[nH]2)c1 [Example 2-2, {2-[3-(2-Methoxy-ethoxy)-phenyl]-1H-pyrrolo[2,3-b]pyridin-5-yl}-(2-methyl-benzyl)-amine] | 0.131 | 0.757
4 | c1ccc(CNc2cnc3[nH]c(-c4ccccc4)cc3c2)cc1 [Example 2-3, Benzyl-(2-phenyl-1H-pyrrolo[2,3-b]pyridin-5-yl)-amine] | 0.01 to 0.5 | 1 to 5
5 | Cc1ccccc1CNc1cnc2[nH]c(-c3ccccc3)cc2c1 [Example 2-4, (2-Methyl-benzyl)-(2-phenyl-1H-pyrrolo[2,3-b]pyridin-5-yl)-amine] | 0.01 to 0.5 | 0.1 to 1

Second part, the compound after the results:

Row | IC50 [1] [µM] | IC50 [2] [µM] | SMILES
6 | 0.01 to 0.5 | 0.1 to 1 | CC(=O)Nc1cccc(-c2cc3cc(NCc4ccccc4)cnc3[nH]2)c1 [Example 2-5, N-[3-(5-Benzylamino-1H-pyrrolo[2,3-b]pyridin-2-yl)-phenyl]-acetamide]
7 | 0.031 | 0.223 | CC(=O)Nc1cccc(-c2cc3cc(NCc4ccccc4C)cnc3[nH]2)c1 [Example 2-6, N-{3-[5-(2-Methyl-benzylamino)-1H-pyrrolo[2,3-b]pyridin-2-yl]-phenyl}-acetamide]
8 | 0.01 to 0.5 | 0.1 to 1 | CC(=O)Nc1ccc(-c2cc3cc(NCc4ccccc4)cnc3[nH]2)cc1 [Example 2-7, N-[4-(5-Benzylamino-1H-pyrrolo[2,3-b]pyridin-2-yl)-phenyl]-acetamide]
9 | 0.01 to 0.5 | 0.1 to 1 | CC(=O)Nc1ccc(-c2cc3cc(NCc4ccccc4C)cnc3[nH]2)cc1 [Example 2-8, N-{4-[5-(2-Methyl-benzylamino)-1H-pyrrolo[2,3-b]pyridin-2-yl]-phenyl}-acetamide]
